# Laboratory results published in the NIST ThermoML archive (doi:10.1016/j.tca.2013.10.024).
# “And” between values parts separate entries of the source, which are not always exact repeats. Identical values can stand only once. Numbers after ± are expanded uncertainties.
# Conditions: Crystal, Calculated from knudsen effusion weight loss
compound,measurement,setting,value
O=S(=O)([O-])[O-].[K+].[K+] [potassium sulfate],vapor or sublimation pressure,1193 K,2.255e-05 ± 4.6e-06 kPa
same,vapor or sublimation pressure,1201 K,4.069e-05 ± 8.3e-06 kPa
same,vapor or sublimation pressure,1202 K,3.268e-05 ± 6.6e-06 kPa
same,vapor or sublimation pressure,1207 K,5.831e-05 ± 1.2e-05 kPa
same,vapor or sublimation pressure,1212 K,4.467e-05 ± 9.1e-06 kPa
same,vapor or sublimation pressure,1214 K,4.592e-05 ± 9.3e-06 kPa and 5.841e-05 ± 1.2e-05 kPa
same,vapor or sublimation pressure,1218 K,4.274e-05 ± 8.7e-06 kPa
same,vapor or sublimation pressure,1221 K,7.584e-05 ± 1.5e-05 kPa
same,vapor or sublimation pressure,1223 K,9.497e-05 ± 1.9e-05 kPa
same,vapor or sublimation pressure,1224 K,6.12e-05 ± 1.2e-05 kPa
same,vapor or sublimation pressure,1225 K,5.984e-05 ± 1.2e-05 kPa
same,vapor or sublimation pressure,1226 K,7.236e-05 ± 1.5e-05 kPa
same,vapor or sublimation pressure,1227 K,0.0001197 ± 2.4e-05 kPa
same,vapor or sublimation pressure,1228 K,0.0001335 ± 2.7e-05 kPa and 9.75e-05 ± 2e-05 kPa
same,vapor or sublimation pressure,1233 K,6.173e-05 ± 1.3e-05 kPa
same,vapor or sublimation pressure,1235 K,6.966e-05 ± 1.4e-05 kPa and 0.0001125 ± 2.3e-05 kPa
same,vapor or sublimation pressure,1238 K,0.000154 ± 3.1e-05 kPa and 7.448e-05 ± 1.5e-05 kPa
same,vapor or sublimation pressure,1239 K,0.000181 ± 3.7e-05 kPa and 0.0001288 ± 2.6e-05 kPa
same,vapor or sublimation pressure,1240 K,9.576e-05 ± 1.9e-05 kPa
same,vapor or sublimation pressure,1241 K,0.0001668 ± 3.4e-05 kPa
same,vapor or sublimation pressure,1243 K,0.0002943 ± 6e-05 kPa and 0.0001001 ± 2e-05 kPa
same,vapor or sublimation pressure,1244 K,0.000186 ± 3.8e-05 kPa [middle of 4 runs]
same,vapor or sublimation pressure,1245 K,0.0001671 ± 3.4e-05 kPa
same,vapor or sublimation pressure,1246 K,0.0001915 ± 3.9e-05 kPa and 0.0001729 ± 3.5e-05 kPa
same,vapor or sublimation pressure,1247 K,0.0002093 ± 4.3e-05 kPa
same,vapor or sublimation pressure,1248 K,0.0002174 ± 4.4e-05 kPa and 0.0001453 ± 3e-05 kPa
same,vapor or sublimation pressure,1253 K,0.0001091 ± 2.2e-05 kPa
same,vapor or sublimation pressure,1254 K,0.0001949 ± 4e-05 kPa
same,vapor or sublimation pressure,1255 K,0.0002829 ± 5.7e-05 kPa and 0.0001188 ± 2.4e-05 kPa
same,vapor or sublimation pressure,1258 K,0.000281 ± 5.7e-05 kPa and 0.0003264 ± 6.6e-05 kPa
same,vapor or sublimation pressure,1259 K,0.0001516 ± 3.1e-05 kPa and 0.0002187 ± 4.4e-05 kPa and 0.0003679 ± 7.5e-05 kPa
same,vapor or sublimation pressure,1260 K,0.0001623 ± 3.3e-05 kPa and 0.0004471 ± 9.1e-05 kPa
same,vapor or sublimation pressure,1263 K,0.0002656 ± 5.4e-05 kPa
same,vapor or sublimation pressure,1264 K,0.0005652 ± 0.00011 kPa and 0.0002789 ± 5.7e-05 kPa
same,vapor or sublimation pressure,1265 K,0.0003443 ± 7e-05 kPa and 0.0002937 ± 6e-05 kPa
same,vapor or sublimation pressure,1267 K,0.0005201 ± 0.00011 kPa and 0.0003602 ± 7.3e-05 kPa
same,vapor or sublimation pressure,1268 K,0.0003503 ± 7.1e-05 kPa [middle of 4 runs]
same,vapor or sublimation pressure,1269 K,0.0001536 ± 3.1e-05 kPa
same,vapor or sublimation pressure,1271 K,0.0003904 ± 7.9e-05 kPa
same,vapor or sublimation pressure,1272 K,0.0005138 ± 0.0001 kPa and 0.0005765 ± 0.00012 kPa and 0.0003016 ± 6.1e-05 kPa
same,vapor or sublimation pressure,1273 K,0.0001617 ± 3.3e-05 kPa and 0.0001919 ± 3.9e-05 kPa
same,vapor or sublimation pressure,1275 K,0.0006554 ± 0.00013 kPa
same,vapor or sublimation pressure,1276 K,0.0003422 ± 7e-05 kPa
same,vapor or sublimation pressure,1277 K,0.000463 ± 9.4e-05 kPa
same,vapor or sublimation pressure,1280 K,0.0004126 ± 8.4e-05 kPa
same,vapor or sublimation pressure,1281 K,0.0005285 ± 0.00011 kPa and 0.0002784 ± 5.7e-05 kPa
same,vapor or sublimation pressure,1282 K,0.000452 ± 9.2e-05 kPa
same,vapor or sublimation pressure,1283 K,0.0007481 ± 0.00015 kPa [middle of 5 runs]
same,vapor or sublimation pressure,1286 K,0.0004333 ± 8.8e-05 kPa
same,vapor or sublimation pressure,1288 K,0.0005671 ± 0.00012 kPa and 0.0005922 ± 0.00012 kPa and 0.0005203 ± 0.00011 kPa
same,vapor or sublimation pressure,1290 K,0.0009328 ± 0.00019 kPa and 0.0004622 ± 9.4e-05 kPa
same,vapor or sublimation pressure,1292 K,0.000853 ± 0.00017 kPa and 0.0003739 ± 7.6e-05 kPa and 0.0005323 ± 0.00011 kPa
same,vapor or sublimation pressure,1296 K,0.0006593 ± 0.00013 kPa and 0.0005992 ± 0.00012 kPa
same,vapor or sublimation pressure,1297 K,0.001092 ± 0.00023 kPa
same,vapor or sublimation pressure,1300 K,0.0007532 ± 0.00015 kPa [middle of 4 runs]
same,vapor or sublimation pressure,1301 K,0.0007786 ± 0.00016 kPa
same,vapor or sublimation pressure,1302 K,0.0004586 ± 9.3e-05 kPa and 0.0006547 ± 0.00013 kPa
same,vapor or sublimation pressure,1303 K,0.0003659 ± 7.4e-05 kPa
same,vapor or sublimation pressure,1304 K,0.0006238 ± 0.00013 kPa
same,vapor or sublimation pressure,1305 K,0.0008515 ± 0.00017 kPa [middle of 4 runs]
same,vapor or sublimation pressure,1306 K,0.001457 ± 0.00031 kPa
same,vapor or sublimation pressure,1308 K,0.0009057 ± 0.00018 kPa
same,vapor or sublimation pressure,1309 K,0.0005351 ± 0.00011 kPa and 0.000795 ± 0.00016 kPa
same,vapor or sublimation pressure,1311 K,0.001559 ± 0.00033 kPa
same,vapor or sublimation pressure,1313 K,0.001473 ± 0.00032 kPa
same,vapor or sublimation pressure,1314 K,0.001 ± 0.0002 kPa and 0.0008818 ± 0.00018 kPa
same,vapor or sublimation pressure,1315 K,0.0006036 ± 0.00012 kPa
same,vapor or sublimation pressure,1317 K,0.000929 ± 0.00019 kPa
same,vapor or sublimation pressure,1318 K,0.000916 ± 0.00019 kPa and 0.0006586 ± 0.00013 kPa
same,vapor or sublimation pressure,1320 K,0.001024 ± 0.00022 kPa
same,vapor or sublimation pressure,1325 K,0.001188 ± 0.00025 kPa and 0.001093 ± 0.00023 kPa
same,vapor or sublimation pressure,1326 K,0.0008296 ± 0.00017 kPa
same,vapor or sublimation pressure,1330 K,0.0008553 ± 0.00017 kPa and 0.001278 ± 0.00027 kPa
same,vapor or sublimation pressure,1332 K,0.001415 ± 0.0003 kPa
same,vapor or sublimation pressure,1334 K,0.00134 ± 0.00029 kPa
same,vapor or sublimation pressure,1335 K,0.001459 ± 0.00031 kPa
same,vapor or sublimation pressure,1336 K,0.001412 ± 0.0003 kPa
same,vapor or sublimation pressure,1341 K,0.001475 ± 0.00032 kPa
same,vapor or sublimation pressure,1343 K,0.001564 ± 0.00034 kPa
same,vapor or sublimation pressure,1347 K,0.001721 ± 0.00037 kPa
same,vapor or sublimation pressure,1349 K,0.001744 ± 0.00038 kPa
same,vapor or sublimation pressure,1352 K,0.001919 ± 0.00041 kPa
same,vapor or sublimation pressure,1355 K,0.001941 ± 0.00042 kPa
same,vapor or sublimation pressure,1359 K,0.002022 ± 0.00044 kPa
